In patent publication US5194645A, “Trans-Pt (IV) compounds” (Johnson Matthey Public Limited Company, priority 1991, dated 1993):

Tests used:
Adj/PC6 = assay: In vivo Adj/PC6 tumour test in mice (LD50, ED90, therapeutic index)
Method: The Adj/PC6 testing was carried out as described by P M Goddard et al presented in Sixth NCI-EORTC Symposium on New Drugs in Cancer Therapy 1989, which is a development of the basic method described by T A Connors et al, Chem Biol Interact 5, 415(1972). The in vivo L1210 tests were conducted according to the NCI protocol, Cancer Chemotherapy Reports, Part 3, vol 2, (Sept 1972) except that the animals used were DBA/2 mice and that dosing was carried out on days 1, 5 and 9. The animals were sacrificed when moribund. The compounds were administered parenterally (ip).
In the Adj/PC6 testing, LD50 and ED90 values in mg/kg body weight were determined in the conventional manner. The therapeutic index (TI) was calculated as the ratio of LD50 to ED90, and the results are shown below.
Additional tests were carried out in vivo using the compound of Example 2, against sensitive Adj/PC6 tumour cell lines, and against tumour cell lines resistant to various platinum anti-tumour agents, and a TI (Therapeutic Index) calculated, as described above.

Adj/PC6/cisplatin res = assay: In vivo Adj/PC6 cisplatin-resistant tumour test in mice
Method: (§1) The animals were sacrificed when moribund. The compounds were administered parenterally (ip).

Adj/PC6/iproplatin res = assay: In vivo Adj/PC6 iproplatin-resistant tumour test in mice
Method: as §1

Adj/PC6/tetraplatin res = assay: In vivo Adj/PC6 tetraplatin-resistant tumour test in mice; design: key to ED90: --: indicates 90% inhibition not achieved for doses up to LD50
Method: as §1

L1210 = assay: In vivo L1210 leukemia, increase in life span; conditions: 9 mg/kg, ip, days 1, 5 and 9, DBA/2 mice
Method: as §1
(§2) The compound of Example 2 was tested against L1210 leukemia, and also against a strain of L1210 resistant to cisplatin, in mice, and the increase in life span (ILS) determined against control mice not being administered any active compound, according to the equation, [formula] where T=days survival of treated mice and
(§3) C=days survival of control mice

Resistant L1210 = assay: In vivo cisplatin-resistant L1210 leukemia, increase in life span; conditions: 9 mg/kg, ip, days 1, 5 and 9, DBA/2 mice, L1210 resistant to cisplatin
Method: as §1, §2, §3

HX62 = assay: In vitro cytotoxicity (SRB), HX62; format: cell-based, human; conditions: HX62, ovarian cancer, 48 to 96 hours
Method: (§4) Additional in vitro biological testing was conducted using cell lines derived from human carcinomas and maintained at the Institute of Cancer Research, Sutton, England (see C A Hills & colleagues, Br J Cancer 59, 527-34 (1989)). Monolayer cells were trypsinized and seeded in 96-well microtiter plates at a density of 1×10^4 cells/well in 200 μl of growth medium. Cells were incubated overnight and test compounds were added to triplicate wells at various concentrations for a total of 48 to 96 hours. For toxicity analysis after drug exposure, the cells were fixed with trichloroacetic acid and stained for cellular protein content by incubation for 30 minutes with 0.4% (wt/vol) sulforodamine B (SRB) dissolved in 1% acetic acid. The unbound dye was removed by 1% acetic acid washes, and the bound dye was extracted with 10 mM Tris buffer. The amount of dye in solution was quantified by absorbance at 564 nm.
(§5) In the Tables A and B below, all the cells are ovarian cancer cells with the exception of GCT27^R /GCT27 which are testicular. Table A gives IC50 values in μM; Table B gives Resistance Factors as a ratio of IC50 for a cell line bred to be resistant to cisplatin against IC50 for the nonresistant cell line.

SKOV-3 = assay: In vitro cytotoxicity (SRB), SKOV-3; format: cell-based, human; conditions: SKOV-3, ovarian cancer, 48 to 96 hours
Method: as §4, §5

PXN/94 = assay: In vitro cytotoxicity (SRB), PXN/94; format: cell-based, human; conditions: PXN/94, ovarian cancer, 48 to 96 hours
Method: as §4, §5

41M ® = assay: In vitro cytotoxicity (SRB), 41M ®; format: cell-based, human; conditions: 41M ® (cisplatin resistant), ovarian cancer, 48 to 96 hours
Method: as §4, §5

41M = assay: In vitro cytotoxicity (SRB), 41M; format: cell-based, human; conditions: ovarian cancer, 48 to 96 hours
Method: as §4, §5

CHI ® = assay: In vitro cytotoxicity (SRB), CHI ®; format: cell-based, human; conditions: CHI ® (cisplatin resistant), ovarian cancer, 48 to 96 hours
Method: as §4, §5

CHI = assay: In vitro cytotoxicity (SRB), CHI; format: cell-based, human; conditions: ovarian cancer, 48 to 96 hours
Method: as §4, §5

41M ®/41M = assay: Resistance factor 41M ®/41M; format: cell-based, human; conditions: ratio of IC50 resistant to nonresistant line, ovarian
Method: as §4, §5

CHI ®/CHI = assay: Resistance factor CHI ®/CHI; format: cell-based, human; conditions: ratio of IC50 resistant to nonresistant line, ovarian
Method: as §4, §5

A2780 ®/A2780 = assay: Resistance factor A2780 ®/A2780; format: cell-based, human; conditions: ratio of IC50 resistant to nonresistant line, ovarian
Method: as §4, §5

GCT27 ®/GCT27 = assay: Resistance factor GCT27 ®/GCT27; format: cell-based, human; conditions: ratio of IC50 resistant to nonresistant line, testicular
Method: as §4, §5

OVCAR-3 [1] = assay: In vivo OVCAR-3 ovarian carcinoma xenograft; design: species or system mice; conditions: for Growth Delay: delay in doubling of tumour volume vs control
Method: The "growth delay" was also measured which represents the delay in achieving a doubling of the tumour volume for the treated group compared to the control group.

OVCAR-3 [2] = assay: In vivo OVCAR-3 ovarian carcinoma xenograft; design: species or system mice; conditions: tumour volume vs control
[3] = Adj/PC6, comparison with cis-isomer

For `[NH2][Pt]([OH])([OH])([Cl])([Cl])[NH]C1CCCCC1` [EX 2, trans-[PtCl2 (OH)2 (NH3)(c-C6H11 NH2)]], the ED90 (Adj/PC6; [3]) was 0.76 mg/kg, the “TI (Therapeutic Index)” value (Adj/PC6; [3]) was 11.6 and the ED90 (Adj/PC6; Adj/PC6 testing, mice, ip) was 0.76 mg/kg body weight. For the same compound, the LD50 (Adj/PC6; Adj/PC6 testing, mice, ip) was 8.8 mg/kg body weight, the “TI (therapeutic index, ratio of LD50 to ED90)” value (Adj/PC6; Adj/PC6 testing, mice, ip) was 11.6 and the “activity compared with the cis isomer” value (Adj/PC6; sensitive and platinum-resistant Adj/PC6 tumours) was “possesses activity, and a different spectrum of activity to the cis isomer”. For the same compound, the ED90 (Adj/PC6/cisplatin res) was 5.6 mg/kg, the LD50 (Adj/PC6/cisplatin res) was 10.5 mg/kg and the “TI (Therapeutic Index)” value (Adj/PC6/cisplatin res) was 1.88. For the same compound, the ED90 (Adj/PC6/iproplatin res) was 2.6 mg/kg, the LD50 (Adj/PC6/iproplatin res) was 8.8 mg/kg and the “TI (Therapeutic Index)” value (Adj/PC6/iproplatin res) was 3.4. For the same compound, the ED90 (Adj/PC6/tetraplatin res) was “--”, the LD50 (Adj/PC6/tetraplatin res) was 8.8 mg/kg and the “ILS (increase in life span)” value (L1210) was 77%. The “ILS (increase in life span)” value (Resistant L1210) was 39%, the IC50 (HX62) was 5.9 µM and the IC50 (SKOV-3) was 8.8 µM. The IC50 (PXN/94) was 3.7 µM, the IC50 (41M ®) was 1.8 µM and the IC50 (41M) was 1.5 µM. The IC50 (CHI ®) was 2.2 µM, the IC50 (CHI) was 1.4 µM and the “Resistance Factor 41M ®/41M” value (41M ®/41M) was 1.2. For the same compound, the “Resistance Factor CHI ®/CHI” value (CHI ®/CHI) was 1.6, the “Resistance Factor A2780 ®/A2780” value (A2780 ®/A2780) was 7.1 and the “Resistance Factor GCT27 ®/GCT27” value (GCT27 ®/GCT27) was 1.8. For the same compound, the “Growth Delay” value (OVCAR-3 [1]; 1 mg/kg) was 0.9 days, the “Growth Delay” value (OVCAR-3 [1]; 2 mg/kg) was 12.0 days and the “Growth Delay” value (OVCAR-3 [1]; 4 mg/kg) was 16.8 days. The “dose-related effect (OVCAR-3 xenograft)” value (OVCAR-3 [1]; increasing doses) was “clear dose-related effect”, the “T/C (day 28)” value (OVCAR-3 [2]; 1 mg/kg) was 0.80 and the “T/C (day 28)” value (OVCAR-3 [2]; 2 mg/kg) was 0.64. For the same compound, the “T/C (day 28)” value (OVCAR-3 [2]; 4 mg/kg) was 0.48.
